Assay results: article PMC3280214, “Structure Based Discovery of Small Molecules to Regulate the Activity of Human Insulin Degrading Enzyme” (PLoS ONE, 2012)
Values joined by “and” are separate entries in the source; they are usually repeats but may differ in a detail not shown here. Equal entries are not always repeated.

Key:
[1] = test system: HeLa cells; experiment: Cell-based degradation of FITC-insulin; set-up: species or system human; conditions: for increase in magnitude of IDE activity for insulin degradation in HeLa cells: HeLa cells pre-loaded with FITC-insulin, 20 µM; for permeability through cell membrane: inferred from HeLa cell assay
Description: It was shown that HeLa cells express insulin receptor, and thus take FITC-labeled insulin inside and degrade it intracellularly, [21], [22]. First, FITC-insulin was added to the culture that contains HeLa cells and incubated for 2 hours in order to allow for sufficient uptake of FITC-insulin by HeLa cells. In order to ensure that FITC-labeled insulin is translocating into the cells through insulin uptake receptor, and that cytoplasmic IDE can degrade FITC- insulin, we conducted live cell imaging of HeLa cells, and recorded fluorescence. At various time points compounds, D3, D6, and D10, were added; and cells were washed with Hank's balanced salt solution (HBSS), the these cells were collected and lysed with appropriate buffer. After centrifugation, cell free extracts were used to measure the change in fluorescence by luminometer. […] Compound D10 increased in vivo proteolysis of FITC- insulin by about 32 fold with HeLa cells compared to control group (Fig. 3A). […] These findings are consistent with the data obtained by in vitro assay, showing enhanced degradation of insulin by D10 and D3 (Fig. 3A). […] This figure further verifies the significant increase in fluorescence observed in the presence of compound D10, which is consistent with our in vitro assay (Fig. 3B).
Cells were cultured at 37°C under a humidified atmosphere of 5% CO2 in medium supplemented with 10% fetal bovine serum. Then, FITC-insulin was added to cell medium and incubated for 2 h at 37°C. Next, compounds were loaded at different time intervals separately. Cells were washed with Hank's balanced salt solution (HBSS), then disrupted with 1× passive lysis buffer. Fluorescence was measured with a luminescence multi-label plate leader, and changes in fluorescence was imaged by fluorescence microscope at Burc Laboratory (Istanbul, Turkey).

[2] = biological target: T1, IDE (Homo sapiens, UniProt P14735); experiment: Degradation of fluorogenic substrate V by IDE; assay type: biochemical; conditions: for increase of IDE-mediated substrate V degradation: 20 µM compound; for EC50: dose response, Sigmoidal Hill 4 parameter fit
T1 construct: made in house; host or cells: E. coli BL21
T1 sequence (P14735 1-1019): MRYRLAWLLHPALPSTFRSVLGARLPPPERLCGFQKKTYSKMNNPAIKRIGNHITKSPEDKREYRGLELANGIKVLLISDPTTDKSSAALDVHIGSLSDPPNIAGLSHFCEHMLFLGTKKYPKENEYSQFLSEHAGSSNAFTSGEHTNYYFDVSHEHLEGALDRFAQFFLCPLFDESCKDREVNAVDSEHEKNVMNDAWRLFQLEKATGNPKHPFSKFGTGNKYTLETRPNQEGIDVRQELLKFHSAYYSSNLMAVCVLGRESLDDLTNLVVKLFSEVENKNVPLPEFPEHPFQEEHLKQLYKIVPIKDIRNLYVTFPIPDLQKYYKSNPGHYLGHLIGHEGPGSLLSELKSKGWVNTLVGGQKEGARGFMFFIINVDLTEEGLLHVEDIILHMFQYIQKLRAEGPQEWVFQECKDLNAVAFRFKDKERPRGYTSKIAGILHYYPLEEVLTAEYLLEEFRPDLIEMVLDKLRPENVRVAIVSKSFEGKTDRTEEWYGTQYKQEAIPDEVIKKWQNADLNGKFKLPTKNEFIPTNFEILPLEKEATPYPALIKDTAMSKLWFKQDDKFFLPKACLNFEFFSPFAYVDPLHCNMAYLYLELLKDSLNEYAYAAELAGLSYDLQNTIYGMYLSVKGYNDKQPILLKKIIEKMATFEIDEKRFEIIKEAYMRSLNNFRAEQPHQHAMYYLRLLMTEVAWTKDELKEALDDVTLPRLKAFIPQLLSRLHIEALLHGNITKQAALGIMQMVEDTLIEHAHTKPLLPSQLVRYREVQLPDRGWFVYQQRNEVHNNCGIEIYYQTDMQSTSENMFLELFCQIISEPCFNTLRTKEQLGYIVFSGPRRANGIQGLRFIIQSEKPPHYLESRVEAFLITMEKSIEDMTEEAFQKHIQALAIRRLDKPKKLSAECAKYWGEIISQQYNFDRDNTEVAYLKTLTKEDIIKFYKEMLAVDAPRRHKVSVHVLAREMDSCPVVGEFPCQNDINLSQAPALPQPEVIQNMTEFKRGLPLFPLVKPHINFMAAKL
Description: The 10 compounds given in Table 1 were subjected to further characterization and their effect was measured on the proteolytic activity of IDE using different substrates. Initially, activity assays were carried out at fixed 20 µM concentrations for all molecules to identify the effect of those compounds on IDE activity. IDE activity was quantified by monitoring the change in fluorescence for the proteolysis of fluorogenic-substrate V, FITC- insulin-bound antibody, and FAβB by recombinant human IDE purified from E.coli BL21 [6], [18], [19]. […] Also, D6 increased the amyloid-β degradation by 20% (Fig. S1C). Further, D10 enhanced IDE-mediated FITC-insulin-mAb and substrate V degradation by 290% and 65%, respectively (Fig. S1A, B). Next, an EC50 value of each molecule that enhanced IDE activity was determined with a dose response assay, where specific activity of IDE was measured with different concentrations of the lead compounds and then the plot was fit to Sigmoidal Hill-4 parameter equation. […] EC50 value for D3 on insulin degradation was approximately measured as 20 µM (Fig. S2C), whereas EC50 value for D6 on amyloid-β degradation was 2 µM (Fig. S2D). […] Among all these four compounds, D10 seems to be the potent activator of IDE, when proteolysis of insulin is considered.
To assess the utility of these novel compounds as chemical regulators for IDE activity, we used fluorescence assay with fluorogenic substrate V (7-methoxycoumarin-4-yl-acetyl-NPPGFSAFK-2, 4-dinitrophenyl). Reaction was carried out in the presence of 105 µl of 10 µl of 40 µM substrate V; 10 µl of 0.02 mg/ml of IDE in 83 µl of 30 mM KH2PO4 at pH of 7.3, and various concentrations (0–35 µM) compounds and also with various time intervals (0–4 hours). The reaction mixture was incubated at 37°C for 2.5 h. The hydrolysis of substrate V was monitored using a Tecan Safire2 microplate reader with excitation and emission wavelengths set at 300 and 395 nm, respectively.
The effect of the lead compounds on the initial rate of proteolysis of IDE was determined by measurement in fluorescence with time both in the presence and absence of the lead compounds. The kinetic data for IDE-mediated insulin, substrate V and amyloid-β degradation were plotted and fitted using SigmaPlot software (Sigmoidal, Hill, 4 parameter). For the initial rate calculations, kinetic data were fitted using SigmaPlot software (Hyperbola; Single Rectangular I, 3 Parameter).

Row | Compound | increase in magnitude of IDE activity for insulin degradation in HeLa cells [1] | permeability through cell membrane [1] | increase of IDE-mediated substrate V degradation [2] | EC50 [2] | increase of initial rate of substrate V degradation ([2]; presence vs absence of compound)
1 | COc1ccc(C2C(C(=O)Nc3ccccc3)=C(C)N=c3sc(=Cc4cn(C)nc4C)c(=O)n32)cc1 (stereo not drawn) [Compound D3] | ~65% | permeable through cell membrane |  |  | 
2 | Nc1c(C(=O)Nc2ccccc2F)c2ccccn2c1C(=O)c1ccc2c(c1)CCCC2 [Compound D4] |  |  | 36% | 7 µM | 
3 | Cc1nn(-c2ccccc2)c2nc(-c3cccc([N+](=O)[O-])c3)n3c4ccccc4nc3c2c1=O [Compound D10] | ~240% | permeable through cell membrane | 65% and 60% | 13 µM | about 2 fold
